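Values below derive from 48-hour exposures of cells grown in 96-well plates, with endpoints linearly interpolated between the two concentrations bracketing the appropriate inhibition level. Definition used: TGI = concentration required for complete inhibition of growth.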
Legend:
Assay in all cases: inhibition of tumour cell growth, NCI panel, 48 h
A498 renal = tested on: A498 renal
CAKI-1 renal = tested on: CAKI-1 renal
HCT-116 colon = tested on: HCT-116 colon
HOP-92 NSCLC = tested on: HOP-92 NSCLC
LOX IMVI melanoma = tested on: LOX IMVI melanoma
MOLT-4 leukemia = tested on: MOLT-4 leukemia
NCI-H460 lung = tested on: NCI-H460 lung
NCI/ADR-RES ovarian = tested on: NCI/ADR-RES ovarian
SK-MEL-2 melanoma = tested on: SK-MEL-2 melanoma
M14 melanoma = tested on: M14 melanoma

Row | SMILES | TGI (A498 renal) | TGI (CAKI-1 renal) | TGI (HCT-116 colon) | TGI (HOP-92 NSCLC) | TGI (LOX IMVI melanoma) | TGI (MOLT-4 leukemia) | TGI (NCI-H460 lung) | TGI (NCI/ADR-RES ovarian) | TGI (SK-MEL-2 melanoma) | TGI (M14 melanoma)
1 | Clc1cccc2[nH]ncc12 | > 100 µM | > 100 µM | > 100 µM | > 100 µM | > 100 µM | > 100 µM | > 100 µM | > 100 µM | > 100 µM | –
2 | O=S(=O)(c1ccc2ccccc2c1)N1CCN(S(=O)(=O)c2ccc3ccccc3c2)CC1 | > 100 µM | > 100 µM | > 100 µM | > 100 µM | > 100 µM | – | > 100 µM | > 100 µM | > 100 µM | > 100 µM
3 | CC(=O)Nc1sccc1S(=O)(=O)c1ccc(Cl)cc1 | – | > 100 µM | > 100 µM | > 100 µM | – | > 100 µM | > 100 µM | > 100 µM | > 100 µM | > 100 µM
4 | O[C@]12c3ccccc3C1CCCCC2N1CCOCC1 (some centres undefined) | – | – | > 100 µM | – | > 100 µM | – | > 100 µM | – | > 100 µM | > 100 µM
5 | FC(F)(F)c1cnc(N/N=C(/c2ccccc2)c2ccccn2)c(Cl)c1 | – | 19.6 µM | 12.1 µM | 23.2 µM | – | > 100 µM | 10.5 µM | 6.92 µM | 24.4 µM | 15.7 µM
6 | CCOP(=O)(/C=C\n1ccc(=O)[nH]c1=O)OCC | > 100 µM | > 100 µM | > 100 µM | – | > 100 µM | > 100 µM | – | > 100 µM | > 100 µM | > 100 µM
7 | C/C(CC(=O)Nc1cccc(Cl)c1C)=N\N=C(N)N | > 100 µM | > 100 µM | > 100 µM | > 100 µM | > 100 µM | > 100 µM | > 100 µM | – | > 100 µM | > 100 µM
8 | NC(N)=N/N=C\c1c(-c2ccccc2)nc2sccn12 | 33.6 µM | 29.6 µM | 28.5 µM | 27.4 µM | 30.1 µM | 51.7 µM | 29.7 µM | 34.9 µM | 28.6 µM | –
9 | CCCCOc1ccc(S(=O)(=O)/N=C(\N)Nc2ccc(Cl)cc2)cc1 | 24.6 µM | – | 30.3 µM | 23.7 µM | 32.8 µM | 29.9 µM | 31.5 µM | 31.5 µM | 31.6 µM | 38 µM
10 | CSc1nc(C)cc(=O)n1C1OC(COC(C)=O)C(OC(C)=O)C(OC(C)=O)C1OC(C)=O (centres undefined) | > 100 µM | – | > 100 µM | – | > 100 µM | > 100 µM | > 100 µM | – | > 100 µM | > 100 µM
11 | COc1ccc2nc(-c3ccc(O)cc3)ccc2c1 | – | – | > 100 µM | > 100 µM | > 100 µM | > 100 µM | > 100 µM | – | – | > 100 µM
12 | CC1=C2CC(C)(C)CC(=O)C2(C)CCC1=O (centres undefined) | – | > 100 µM | > 100 µM | – | > 100 µM | > 100 µM | > 100 µM | > 100 µM | > 100 µM | > 100 µM
13 | CC(C)(CC1(C)NC(=O)NC1=O)OCc1ccccc1 (centres undefined) | > 100 µM | > 100 µM | > 100 µM | > 100 µM | > 100 µM | – | > 100 µM | > 100 µM | > 100 µM | > 100 µM

From PubChem BioAssay (NCI)
